Data as given in patent publication US20240299352A1, “COMBINATION THERAPIES WITH SETD2 INHIBITORS” (Epizyme, Inc., priority 2021, published 2024).

What was measured:
[1] = system: diffuse large B-cell lymphoma (DLBCL) cell lines; test: Co-treatment combination study with Cpd. No. 15, further cell lines (Table F), CellTiter-Glo viability, Loewe Volume; format: cell-based; conditions: for Combination effect with Cpd. No. 15 (Loewe Volume class), Ri1: co-treatment with Cpd. No. 15, cell line Ri1 (Cat. No. 96090512-1VL); for Combination effect with Cpd. No. 15 (Loewe Volume class), TMD8: co-treatment with Cpd. No. 15, cell line TMD8 (Cat. No. M-097); for Combination effect with Cpd. No. 15 (Loewe Volume class), WILL1: co-treatment with Cpd. No. 15, cell line WILL1 (Cat. No. ACC 651)
Method: (§1) Mantle cell lymphoma (MCL) and diffuse large B-cell lymphoma (DLBCL) cell line cultures in log-linear growth rate were treated with combinations of Cpd. No. 15 and combination partners according to a co-treatment model. […] No. 15 and the combination partner. […] Each combination was tested in quadruplicate wells. The final concentration of DMSO (vehicle) in the assay was 0.1% v/v. Fifty microliters of cell line suspension were directly dispensed to the assay-ready plates with an automated multichannel dispenser on to 384-well assay-ready plates. Assay plates were incubated for seven days unless otherwise indicated in a humidified atmosphere of 5% CO2 at 37° C. Quantification of the effect of single agents or combinations on cell viability was performed through measurement of cellular adenosine triphosphate (ATP) using a CellTiter-Glo® (Promega, Madison, WI) Luminescent Cell Viability Assay. Luminescence was detected using a SpectraMax M5 microplate reader (Molecular Devices, Sunnyvale, CA). Concentration response plots were generated in GraphPad Prism version 7.0 for Windows, GraphPad Software, (La Jolla, California) and curves fitted to a four-parameter logistic model with variable slope. Percent of inhibition was calculated at each treatment concentration.

[2] = system: diffuse large B-cell lymphoma (DLBCL) cell lines; test: Pre-treatment model combination study with Cpd. No. 15 (7 days pre-treatment, then combination; Table G), CellTiter-Glo viability, Loewe Volume; conditions: 7 days pre-treatment with Cpd. No. 15, then combination
DOHH2 = test: Co-treatment combination study with Cpd. No. 15, CellTiter-Glo viability, Loewe Volume; format: cell-based; conditions: in combination with Cpd. No. 15, seven days, DLBCL cell line DOHH2
Method: as §1

WSUDLCL2 = test: as above; format: cell-based; conditions: in combination with Cpd. No. 15, seven days, DLBCL cell line WSUDLCL2
Method: as §1

KARPAS422 = test: as above; format: cell-based; conditions: in combination with Cpd. No. 15, seven days, DLBCL cell line KARPAS422
Method: as §1

SUDHL6 = test: as above; format: cell-based; conditions: in combination with Cpd. No. 15, seven days, DLBCL cell line SUDHL6
Method: as §1

TOLEDO = test: as above; format: cell-based; conditions: in combination with Cpd. No. 15, seven days, DLBCL cell line TOLEDO
Method: as §1

DB = test: as above; format: cell-based; conditions: in combination with Cpd. No. 15, seven days, DLBCL cell line DB
Method: as §1

Pfeiffer = test: as above; format: cell-based; conditions: in combination with Cpd. No. 15, seven days, DLBCL cell line Pfeiffer
Method: as §1

WILL2 = test: as above; format: cell-based; conditions: in combination with Cpd. No. 15, seven days, DLBCL cell line WILL2
Method: as §1

SUDHL4 = test: as above; format: cell-based; conditions: in combination with Cpd. No. 15, seven days, DLBCL cell line SUDHL4
Method: as §1

SUDHL10 = test: as above; format: cell-based; conditions: in combination with Cpd. No. 15; 5-Day Cotreatment; DLBCL cell line SUDHL10
Method: as §1

HT = test: as above; format: cell-based; conditions: in combination with Cpd. No. 15, seven days, DLBCL cell line HT
Method: as §1

SUDHL5 = test: as above; format: cell-based; conditions: in combination with Cpd. No. 15, seven days, DLBCL cell line SUDHL5
Method: as §1

WSUNHL = test: as above; format: cell-based; conditions: in combination with Cpd. No. 15, seven days, DLBCL cell line WSUNHL
Method: as §1

RL = test: as above; format: cell-based; conditions: in combination with Cpd. No. 15; 6-Day Cotreatment; DLBCL cell line RL
Method: as §1

SUDHL2 = test: as above; format: cell-based; conditions: in combination with Cpd. No. 15, seven days, DLBCL cell line SUDHL2
Method: as §1

SUDHL8 = test: as above; format: cell-based; conditions: in combination with Cpd. No. 15, seven days, DLBCL cell line SUDHL8
Method: as §1

JVM2 = test: as above; format: cell-based; conditions: in combination with Cpd. No. 15, seven days, mantle cell lymphoma cell line JVM2 (CRL-3002)
Method: as §1

GRANTA519 = test: as above; format: cell-based; conditions: in combination with Cpd. No. 15, seven days, mantle cell lymphoma cell line GRANTA519 (ACC 342)
Method: as §1

JEKO1 = test: as above; format: cell-based; conditions: in combination with Cpd. No. 15, seven days, mantle cell lymphoma cell line JEKO1 (CRL-3006)
Method: as §1

MINO = test: as above; format: cell-based; conditions: in combination with Cpd. No. 15, seven days, mantle cell lymphoma cell line MINO (CRL-3000)
Method: as §1

MAVER1 = test: as above; format: cell-based; conditions: in combination with Cpd. No. 15, seven days, mantle cell lymphoma cell line MAVER1 (CRL-3008)
Method: as §1

Z138 = test: as above; format: cell-based; conditions: in combination with Cpd. No. 15, seven days, mantle cell lymphoma cell line Z138 (CRL-3001)
Method: as §1

REC1 = test: as above; format: cell-based; conditions: in combination with Cpd. No. 15, seven days, mantle cell lymphoma cell line REC1 (CRL-3004)
Method: as §1

SMILES | Combination effect with Cpd. No. 15 (Loewe Volume class), Ri1 [1] | Combination effect with Cpd. No. 15 (Loewe Volume class), TMD8 [1] | Combination effect with Cpd. No. 15 (Loewe Volume class), WILL1 [1] | Combination effect (Loewe Volume) DOHH2 (DOHH2) | Combination effect (Loewe Volume) WSUDLCL2 (WSUDLCL2) | Combination effect (Loewe Volume) KARPAS422 (KARPAS422) | Combination effect (Loewe Volume) SUDHL6 (SUDHL6) | Combination effect (Loewe Volume) TOLEDO (TOLEDO) | Combination effect (Loewe Volume) DB (DB) | Combination effect (Loewe Volume) Pfeiffer (Pfeiffer) | Combination effect (Loewe Volume) WILL2 (WILL2) | Combination effect (Loewe Volume) SUDHL4 (SUDHL4) | Combination effect (Loewe Volume) SUDHL10 (SUDHL10) | Combination effect (Loewe Volume) HT (HT) | Combination effect (Loewe Volume) SUDHL5 (SUDHL5) | Combination effect (Loewe Volume) WSUNHL (WSUNHL) | Combination effect (Loewe Volume) RL (RL) | Combination effect (Loewe Volume) SUDHL2 (SUDHL2) | Combination effect (Loewe Volume) SUDHL8 (SUDHL8) | Combination effect (Loewe Volume) JVM2 (JVM2) | also measured
Nc1ccn([C@@H]2O[C@H](CO)[C@@H](O)C2(F)F)c(=O)n1 [Gemcitabine, gemcitabine] | Additivity (between 1 and −1: additivity) | Additivity (between 1 and −1: additivity) | Additivity (between 1 and −1: additivity) | Additivity (between 1 and −1: additivity) | Additivity (between 1 and −1: additivity) | Additivity (between 1 and −1: additivity) | Additivity (between 1 and −1: additivity) | Additivity (between 1 and −1: additivity) | Additivity (between 1 and −1: additivity) | Additivity (between 1 and −1: additivity) | Additivity (between 1 and −1: additivity) | Additivity (between 1 and −1: additivity) | Additivity (between 1 and −1: additivity) | Additivity (between 1 and −1: additivity) | Additivity (between 1 and −1: additivity) | Additivity (between 1 and −1: additivity) | Additivity (between 1 and −1: additivity) | Additivity (between 1 and −1: additivity) | Additivity (between 1 and −1: additivity) | – | Combination effect with Cpd. No. 15 (Loewe Volume class), Farage ([2]; cell line Farage (Cat. No. CRL-2630)): Additivity (between 1 and −1: additivity); Combination effect with Cpd. No. 15 (Loewe Volume class), HT ([2]; cell line HT (Cat. No. CRL-2631)): Additivity (between 1 and −1: additivity); Combination effect with Cpd. No. 15 (Loewe Volume class), OCILY7 ([2]; cell line OCILY7 (Cat. No. ACC 688)): Additivity (between 1 and −1: additivity); Combination effect with Cpd. No. 15 (Loewe Volume class), SUDHL4 ([2]; cell line SUDHL4 (Cat. No. ACC 495)): Additivity (between 1 and −1: additivity); Combination effect with Cpd. No. 15 (Loewe Volume class), WILL2 ([2]; cell line WILL2 (Cat. No. ACC 652)): Additivity (between 1 and −1: additivity)
COc1cccc2c1C(=O)c1c(O)c3c(c(O)c1C2=O)C[C@@](O)(C(=O)CO)C[C@@H]3O[C@H]1C[C@H](N)[C@H](O)[C@H](C)O1 [Doxorubicin, doxorubicin] | Synergy (VLoewe>1: synergy) | Additivity (between 1 and −1: additivity) | Additivity (between 1 and −1: additivity) | Additivity (between 1 and −1: additivity) | Additivity (between 1 and −1: additivity) | Additivity (between 1 and −1: additivity) | Synergy (VLoewe>1: synergy) | Synergy (VLoewe>1: synergy) | Additivity (between 1 and −1: additivity) | Additivity (between 1 and −1: additivity) | Additivity (between 1 and −1: additivity) | Additivity (between 1 and −1: additivity) | Additivity (between 1 and −1: additivity) | Additivity (between 1 and −1: additivity) | Additivity (between 1 and −1: additivity) | Additivity (between 1 and −1: additivity) | Additivity (between 1 and −1: additivity) | Additivity (between 1 and −1: additivity) | Additivity (between 1 and −1: additivity) | Additivity (between 1 and −1: additivity) | Combination effect (Loewe Volume) GRANTA519 (GRANTA519): Additivity (between 1 and −1: additivity); Combination effect (Loewe Volume) JEKO1 (JEKO1): Additivity (between 1 and −1: additivity); Combination effect (Loewe Volume) MINO (MINO): Additivity (between 1 and −1: additivity); Combination effect (Loewe Volume) MAVER1 (MAVER1): Additivity (between 1 and −1: additivity); Combination effect (Loewe Volume) Z138 (Z138): Additivity (between 1 and −1: additivity); Combination effect (Loewe Volume) REC1 (REC1): Additivity (between 1 and −1: additivity)
C=CC(=O)N1CCC[C@@H](n2nc(-c3ccc(Oc4ccccc4)cc3)c3c(N)ncnc32)C1 [Ibrutinib, ibrutinib] | – | – | – | Synergy (VLoewe>1: synergy) | Additivity (between 1 and −1: additivity) | No Effect | Synergy (VLoewe>1: synergy) | No Effect | No Effect | No Effect | Additivity (between 1 and −1: additivity) | Synergy (VLoewe>1: synergy) | No Effect | No Effect | No Effect | Additivity (between 1 and −1: additivity) | Additivity (between 1 and −1: additivity) | No Effect | No Effect | Additivity (between 1 and −1: additivity) | Combination effect (Loewe Volume) GRANTA519 (GRANTA519): Additivity (between 1 and −1: additivity); Combination effect (Loewe Volume) JEKO1 (JEKO1): Synergy (VLoewe>1: synergy); Combination effect (Loewe Volume) MINO (MINO): Synergy (VLoewe>1: synergy); Combination effect (Loewe Volume) MAVER1 (MAVER1): Synergy (VLoewe>1: synergy); Combination effect (Loewe Volume) Z138 (Z138): No Effect; Combination effect (Loewe Volume) REC1 (REC1): Additivity (between 1 and −1: additivity)
